Measurements from patent US8158647B2, “Substituted pyrrolopyridines and pyrazolopyridines as kinase modulators” (SGX Pharmaceuticals, Inc., priority 2007, dated 2012).

Legend:
[1] = molecular target: T1, purified and unphosphorylated T315I Abl kinase domain (ABL_T315I_0P) (Mus musculus, UniProt P00520, T315I); assay: c-Abl T315I (unphosphorylated kinase domain) pyruvate kinase/lactate dehydrogenase coupled enzyme assay; type: biochemical; conditions: 10 μM ATP
T1 construct: The c-Abl T3151 KD (kinase domain) was purified as follows; Met-Ser-Leu (vector-derived residues) (N); made in house; host or cells: E. coli BL21(DE3) strains (Codon+RIL, or pSA0145 for the lambda phosphatase co-expression plasmid)
T1 sequence (P00520 242-493 T315I limits assumed): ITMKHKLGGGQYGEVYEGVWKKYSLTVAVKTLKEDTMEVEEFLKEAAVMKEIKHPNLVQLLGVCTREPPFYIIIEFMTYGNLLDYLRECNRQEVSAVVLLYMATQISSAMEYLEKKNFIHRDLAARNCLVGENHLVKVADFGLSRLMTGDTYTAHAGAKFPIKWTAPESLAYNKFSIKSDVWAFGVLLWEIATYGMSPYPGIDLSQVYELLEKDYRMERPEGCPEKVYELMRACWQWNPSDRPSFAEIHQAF

ABL P210WT BAF3 cells = molecular target: T2, ABL P210WT BAF3 cells (Homo sapiens, UniProt P00519); assay: 96-well XTT cell survival assay, BaF3 ABL P210WT; type: cell-based; conditions: ABL P210 WT, 72 hours, read-out: CELL BIO ABL P210WT BAF3 XTT (IC50)
T2 construct: ABL P210WT BAF3; fused on or other part: P11274 (Breakpoint cluster region protein)
How it was run: (§1)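 Ba/F3 cells in RPMI 1640 with 10% FBS (IL-3 medium for maintenance) were seeded at 5000-8000 cells/well and exposed to compound dilutions in duplicate for 72 h at 37° C. Viability read by XTT/PMS, absorbance 405 nm minus 650 nm after 2-6 h.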

ABL T315I BAF3 cells = molecular target: T3, ABL T315I BAF3 cells (Homo sapiens, UniProt P00519, T315I, cells depend on it); assay: 96-well XTT cell survival assay, BaF3 ABL T315I; type: cell-based; conditions: 72 hours, read-out: CELL BIO ABL T315I BAF3 XTT (IC50)
T3 construct: ABL T315I BAF3; fused on or other part: P11274 (Breakpoint cluster region protein)
How it was run: as §1

In the case of COc1ccc(F)cc1-c1c[nH]c2ncc(-c3cncc(C(=O)N(C)C)c3)c(Cl)c12 [5-[4-Chloro-3-(5-fluoro-2-methoxy-phenyl)-1H-pyrrolo[2,3-b]pyridin-5-yl]-N,N-dimethyl-nicotinamide], the “ABL_T315I_0P (IC50)” value [1] is reported as “D (<0.01 μM)”, the GI50 (ABL P210WT BAF3 cells) is reported as under 10 nM and the GI50 (ABL T315I BAF3 cells) is reported as 10 to 100 nM.

For CN(C)C(=O)c1cncc(-c2cnc3[nH]cc(-c4ccccc4F)c3c2Cl)n1 [6-[4-Chloro-3-(2-fluoro-phenyl)-1H-pyrrolo[2,3-b]pyridin-5-y] [6-[4-Chloro-3-(2-fluoro-phenyl)-1H-pyrrolo[2,3-b]pyridin-5-yl]-pyrazine-2-carboxylic acid dimethylamide], the “ABL_T315I_0P (IC50)” value [1] was “D (<0.01 μM)”, the GI50 (ABL P210WT BAF3 cells) was over 1000 nM and the GI50 (ABL T315I BAF3 cells) was over 1000 nM.

For CN(C)C(=O)c1cncc(-c2cnc3[nH]cc(-c4ccc(F)cc4)c3c2Cl)n1 [6-[4-Chloro-3-(4-fluoro-phenyl)-1H-pyrrolo[2,3-b]pyridin-5-yl]-pyrazine-2-carboxylic acid dimethylamide], the “ABL_T315I_0P (IC50)” value [1] was “D (<0.01 μM)”, the GI50 (ABL P210WT BAF3 cells) was 100 to 1000 nM and the GI50 (ABL T315I BAF3 cells) was over 1000 nM.

COc1ccc(F)cc1-c1c[nH]c2ncc(-c3cncc(C(=O)N(C)C)n3)c(Cl)c12 [6-[4-Chloro-3-(5-fluoro-2-methoxy-phenyl)-1H-pyrrolo[2,3-b]pyridin-5-yl]-pyrazine-2-carboxylic acid dimethylamide] was tested, and the “ABL_T315I_0P (IC50)” value [1] was “D (<0.01 μM)”, the GI50 (ABL P210WT BAF3 cells) was 10 to 100 nM and the GI50 (ABL T315I BAF3 cells) was 10 to 100 nM.

In the case of CN(C)C(=O)c1cncc(-c2cnc3[nH]cc(-c4ccccc4F)c3c2Cl)n1 [6-[4-chloro-3-(2-fluoro-phenyl)-1H-pyrrolo[2,3,b]pyridine-5-], the “ABL_T315I_0P (IC50)” value [1] is reported as “D (<0.01 μM)”, the GI50 (ABL P210WT BAF3 cells) is reported as 100 to 1000 nM and the GI50 (ABL T315I BAF3 cells) is reported as 100 to 1000 nM.

With OC(c1cncc(-c2cnc3[nH]cc(-c4ccccc4)c3c2Cl)c1)c1ncccc1F (stereo not drawn) [[5-(4-Chloro-3-phenyl-1H-pyrrolo[2,3-b]pyridin-5-yl)-pyridin-3-yl]-(3-fluoro-pyridin-2-yl)-methanol] the “ABL_T315I_0P (IC50)” value [1] was “D (<0.01 μM)”, the GI50 (ABL P210WT BAF3 cells) was 100 to 1000 nM and the GI50 (ABL T315I BAF3 cells) was 100 to 1000 nM.

In the case of CNc1c(Br)cnc2[nH]cc(-c3ccccc3OC)c12 [[5-Bromo-3-(2-methoxy-phenyl)-1H-pyrrolo[2,3-b]pyridin-4-yl]-methyl-amine], the “ABL_T315I_0P (IC50)” value [1] is reported as “C (0.1-0.01 μM)”, the GI50 (ABL P210WT BAF3 cells) is reported as over 1000 nM and the GI50 (ABL T315I BAF3 cells) is reported as over 1000 nM.

Nc1ncc(-c2cnc3[nH]cc(-c4cc(F)ccc4F)c3c2Cl)cc1C(=O)N1CCCC1CO (stereo not drawn) [{2-Amino-5-[4-chloro-3-(2,5-difluoro-phenyl)-1H-pyrrolo[2,3-b]pyridin-5-yl]-pyridin-3-yl}-(2-hydroxymethyl-pyrrolidin-1-yl)-methanone] was tested, and the “ABL_T315I_0P (IC50)” value [1] was “D (<0.01 μM)”, the GI50 (ABL P210WT BAF3 cells) was 100 to 1000 nM and the GI50 (ABL T315I BAF3 cells) was 100 to 1000 nM.

CN(C)C1CCN(C(=O)c2cc(-c3cnc4[nH]cc(-c5cc(F)ccc5F)c4c3Cl)cnc2N)C1 (stereo not drawn) [{2-Amino-5-[4-chloro-3-(2,5-difluoro-phenyl)-1H-pyrrolo[2,3-b]pyridin-5-yl]-pyridin-3-yl}-(3-dimethylamino-pyrrolidin-1-yl)-methanone] was tested, and the “ABL_T315I_0P (IC50)” value [1] was “D (<0.01 μM)”, the GI50 (ABL P210WT BAF3 cells) was 100 to 1000 nM and the GI50 (ABL T315I BAF3 cells) was 100 to 1000 nM.

Nc1ncc(-c2cnc3[nH]cc(-c4cc(F)ccc4F)c3c2Cl)cc1C(=O)N1CC(O)C1 [{2-Amino-5-[4-chloro-3-(2,5-difluoro-phenyl)-1H-pyrrolo[2,3-b]pyridin-5-yl]-pyridin-3-yl}-(3-hydroxy-azetidin-1-yl)-methanone] was tested, and the “ABL_T315I_0P (IC50)” value [1] was “D (<0.01 μM)”, the GI50 (ABL P210WT BAF3 cells) was 100 to 1000 nM and the GI50 (ABL T315I BAF3 cells) was 100 to 1000 nM.

With Nc1ncc(-c2cnc3[nH]cc(-c4cc(F)ccc4F)c3c2Cl)cc1C(=O)N1CCOCC1 [{2-Amino-5-[4-chloro-3-(2,5-difluoro-phenyl)-1H-pyrrolo[2,3-b]pyridin-5-yl]-pyridin-3-yl}-morpholin-4-yl-methanone] the “ABL_T315I_0P (IC50)” value [1] was “D (<0.01 μM)”, the GI50 (ABL P210WT BAF3 cells) was 100 to 1000 nM and the GI50 (ABL T315I BAF3 cells) was 100 to 1000 nM.

COc1ccccc1-c1c[nH]c2ncc(-c3cnc(N)c(C(=O)N4CCOCC4)c3)c(Cl)c12 [{2-Amino-5-[4-chloro-3-(2-methoxy-phenyl)-1H-pyrrolo[2,3-b]pyridin-5-yl]-pyridin-3-yl}-morpholin-4-yl-methanone] was tested, and the “ABL_T315I_0P (IC50)” value [1] was “D (<0.01 μM)”, the GI50 (ABL P210WT BAF3 cells) was 100 to 1000 nM and the GI50 (ABL T315I BAF3 cells) was 100 to 1000 nM.

With Nc1ncc(-c2cnc3[nH]cc(-c4cccc(F)c4)c3c2Cl)cc1C(=O)N1CCCC1CO (stereo not drawn) [{2-Amino-5-[4-chloro-3-(3-fluoro-phenyl)-1H-pyrrolo[2,3-b]pyridin-5-yl]-pyridin-3-yl}-(2-hydroxymethyl-pyrrolidin-1-yl)-methanone] the “ABL_T315I_0P (IC50)” value [1] was “D (<0.01 μM)”, the GI50 (ABL P210WT BAF3 cells) was 100 to 1000 nM and the GI50 (ABL T315I BAF3 cells) was 100 to 1000 nM.

For CN(C)C1CCN(C(=O)c2cc(-c3cnc4[nH]cc(-c5cccc(F)c5)c4c3Cl)cnc2N)C1 (stereo not drawn) [{2-Amino-5-[4-chloro-3-(3-fluoro-phenyl)-1H-pyrrolo[2,3-b]pyridin-5-yl]-pyridin-3-yl}-(3-dimethylamino-pyrrolidin-1-yl)-methanone], the “ABL_T315I_0P (IC50)” value [1] was “D (<0.01 μM)”, the GI50 (ABL P210WT BAF3 cells) was 100 to 1000 nM and the GI50 (ABL T315I BAF3 cells) was 100 to 1000 nM.

Nc1ncc(-c2cnc3[nH]cc(-c4cccc(F)c4)c3c2Cl)cc1C(=O)N1CC(O)C1 [{2-Amino-5-[4-chloro-3-(3-fluoro-phenyl)-1H-pyrrolo[2,3-b]pyridin-5-yl]-pyridin-3-yl}-(3-hydroxy-azetidin-1-yl)-methanone] was tested, and the “ABL_T315I_0P (IC50)” value [1] was “D (<0.01 μM)”, the GI50 (ABL P210WT BAF3 cells) was 100 to 1000 nM and the GI50 (ABL T315I BAF3 cells) was 100 to 1000 nM.

In the case of Nc1ncc(-c2cnc3[nH]cc(-c4cccc(F)c4)c3c2Cl)cc1C(=O)N1CCOCC1 [{2-Amino-5-[4-chloro-3-(3-fluoro-phenyl)-1H-pyrrolo[2,3-b]pyridin-5-yl]-pyridin-3-yl}-morpholin-4-yl-methanone], the “ABL_T315I_0P (IC50)” value [1] is reported as “D (<0.01 μM)”, the GI50 (ABL P210WT BAF3 cells) is reported as 10 to 100 nM and the GI50 (ABL T315I BAF3 cells) is reported as 10 to 100 nM.

For OC(c1cccc(-c2cnc3[nH]cc(-c4ccccc4F)c3c2Cl)c1)c1ncco1 (stereo not drawn) [{3-[4-Chloro-3-(2-fluoro-phenyl)-1H-pyrrolo[2,3-b]pyridin-5-yl]-phenyl}-oxazol-2-yl-methanol], the “ABL_T315I_0P (IC50)” value [1] was “D (<0.01 μM)”, the GI50 (ABL P210WT BAF3 cells) was over 1000 nM and the GI50 (ABL T315I BAF3 cells) was over 1000 nM.

OC(c1cccc(-c2cnc3[nH]cc(-c4ccc(F)cc4)c3c2Cl)c1)c1ncco1 (stereo not drawn) [{3-[4-Chloro-3-(4-fluoro-phenyl)-1H-pyrrolo[2,3-b]pyridin-5-yl]-phenyl}-oxazol-2-yl-methanol] was tested, and the “ABL_T315I_0P (IC50)” value [1] was “C (0.1-0.01 μM)”, the GI50 (ABL P210WT BAF3 cells) was over 1000 nM and the GI50 (ABL T315I BAF3 cells) was over 1000 nM.

With OC(c1cncc(-c2cnc3[nH]cc(-c4cccc(F)c4F)c3c2Cl)c1)c1ncccc1F (stereo not drawn) [{5-[4-Chloro-3-(2,3-difluoro-phenyl)-1H-pyrrolo[2,3-b]pyridin-5-yl]-pyridin-3-yl}-(3-fluoro-pyridin-2-yl)-methanol] the “ABL_T315I_0P (IC50)” value [1] was “D (<0.01 μM)”, the GI50 (ABL P210WT BAF3 cells) was 100 to 1000 nM and the GI50 (ABL T315I BAF3 cells) was 100 to 1000 nM.

For OC(c1cncc(-c2cnc3[nH]cc(-c4cccc(F)c4F)c3c2Cl)c1)C1CC1 (stereo not drawn) [{5-[4-Chloro-3-(2,3-difluoro-phenyl)-1H-pyrrolo[2,3-b]pyridin-5-yl]-pyridin-3-yl}-cyclopropyl-methanol], the “ABL_T315I_0P (IC50)” value [1] was “D (<0.01 μM)”, the GI50 (ABL P210WT BAF3 cells) was 100 to 1000 nM and the GI50 (ABL T315I BAF3 cells) was 100 to 1000 nM.

In the case of Cn1nccc1C(O)c1cncc(-c2cnc3[nH]cc(-c4ccccc4F)c3c2Cl)c1 (stereo not drawn) [{5-[4-Chloro-3-(2-fluoro-phenyl)-1H-pyrrolo[2,3-b]pyridin-5-yl]-pyridin-3-yl}-(2-methyl-2H-pyrazol-3-yl)-methanol], the “ABL_T315I_0P (IC50)” value [1] is reported as “D (<0.01 μM)”, the GI50 (ABL P210WT BAF3 cells) is reported as over 1000 nM and the GI50 (ABL T315I BAF3 cells) is reported as over 1000 nM.

OC(c1cncc(-c2cnc3[nH]cc(-c4ccccc4F)c3c2Cl)c1)c1ncco1 (stereo not drawn) [{5-[4-Chloro-3-(2-fluoro-phenyl)-1H-pyrrolo[2,3-b]pyridin-5-yl]-pyridin-3-yl}-oxazol-2-yl-methanol] was tested, and the “ABL_T315I_0P (IC50)” value [1] was “D (<0.01 μM)”, the GI50 (ABL P210WT BAF3 cells) was 100 to 1000 nM and the GI50 (ABL T315I BAF3 cells) was 100 to 1000 nM.

For OC(c1cncc(-c2cnc3[nH]cc(-c4ccc(F)cc4)c3c2Cl)c1)c1ncccc1F (stereo not drawn) [{5-[4-Chloro-3-(4-fluoro-phenyl)-1H-pyrrolo[2,3-b]pyridin-5-yl]-pyridin-3-yl}-(3-fluoro-pyridin-2-yl)-methanol], the “ABL_T315I_0P (IC50)” value [1] was “C (0.1-0.01 μM)”, the GI50 (ABL P210WT BAF3 cells) was over 1000 nM and the GI50 (ABL T315I BAF3 cells) was over 1000 nM.

With COc1ccc(F)cc1-c1c[nH]c2ncc(-c3cncc(C(O)c4ncccc4F)c3)c(Cl)c12 (stereo not drawn) [{5-[4-Chloro-3-(5-fluoro-2-methoxy-phenyl)-1H-pyrrolo[2,3-b]pyridin-5-yl]-pyridin-3-yl}-(3-fluoro-pyridin-2-yl)-methanol] the “ABL_T315I_0P (IC50)” value [1] was “D (<0.01 μM)”, the GI50 (ABL P210WT BAF3 cells) was under 10 nM and the GI50 (ABL T315I BAF3 cells) was 10 to 100 nM.
